Assay [1] deals with T47D cells. Kind of assay: Cell viability assay (CellTiterGlo). In kind it is cell-based. The settings on record: Homo sapiens, 144 h, read-out: T47D (IC50, nM).
For assay [2], the target named is T1, Progesterone Receptor (PR)-LBD and coactivator peptide (Homo sapiens, UniProt P06401).
T1 sequence (P06401 679-913 limits assumed): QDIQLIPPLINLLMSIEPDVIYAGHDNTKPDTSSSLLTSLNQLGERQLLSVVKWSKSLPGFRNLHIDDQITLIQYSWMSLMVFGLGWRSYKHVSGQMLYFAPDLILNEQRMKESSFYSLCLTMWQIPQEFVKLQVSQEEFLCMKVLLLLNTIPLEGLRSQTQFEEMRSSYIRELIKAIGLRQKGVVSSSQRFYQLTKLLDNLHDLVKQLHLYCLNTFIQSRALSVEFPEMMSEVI
Kind of assay: PR coactivator antagonist assay. To be noted: 2.5 nM PR-LBD, 10 nM progesterone-induced fluorescence response.

Assay [3] concerns 22Rv1 cells. Kind of assay: Cell viability assay (CellTiterGlo). To be noted: Homo sapiens, 22Rv1, 144 h, read-out: 22RV1 (IC50, nM).
Assay [4] addresses T2, AR (cytosol from LnCaP cells) (Homo sapiens, UniProt P10275, T878A).
T2 sequence (P10275 1-920 T878A): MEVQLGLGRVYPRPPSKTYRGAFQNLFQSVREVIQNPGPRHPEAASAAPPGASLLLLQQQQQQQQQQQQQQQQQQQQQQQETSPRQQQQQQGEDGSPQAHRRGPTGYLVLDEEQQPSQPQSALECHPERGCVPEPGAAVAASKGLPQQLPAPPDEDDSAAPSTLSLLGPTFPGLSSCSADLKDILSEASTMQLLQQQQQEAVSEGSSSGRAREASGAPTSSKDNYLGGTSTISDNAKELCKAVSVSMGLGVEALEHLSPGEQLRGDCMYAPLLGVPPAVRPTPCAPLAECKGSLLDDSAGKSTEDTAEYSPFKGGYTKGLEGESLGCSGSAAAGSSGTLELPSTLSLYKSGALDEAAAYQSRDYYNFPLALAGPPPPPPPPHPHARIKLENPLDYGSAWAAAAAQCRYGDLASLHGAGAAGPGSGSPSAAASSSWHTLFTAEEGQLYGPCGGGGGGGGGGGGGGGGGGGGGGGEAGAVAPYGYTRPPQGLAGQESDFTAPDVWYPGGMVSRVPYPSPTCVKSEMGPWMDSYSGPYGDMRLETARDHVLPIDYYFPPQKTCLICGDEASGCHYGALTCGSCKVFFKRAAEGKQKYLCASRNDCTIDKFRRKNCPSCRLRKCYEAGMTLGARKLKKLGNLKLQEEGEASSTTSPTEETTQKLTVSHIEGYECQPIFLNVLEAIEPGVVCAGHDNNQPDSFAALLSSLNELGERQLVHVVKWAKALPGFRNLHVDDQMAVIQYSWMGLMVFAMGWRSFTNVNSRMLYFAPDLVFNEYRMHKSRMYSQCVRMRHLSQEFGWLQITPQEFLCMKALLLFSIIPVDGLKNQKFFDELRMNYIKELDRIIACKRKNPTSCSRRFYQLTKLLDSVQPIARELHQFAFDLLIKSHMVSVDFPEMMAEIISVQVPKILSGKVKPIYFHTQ
In words: AR binding assay (3H-R1881 displacement).
Method: The plate was then centrifuged at 3000 rpm for 30 minutes at 4° C.

The target of assay [5] is T3, ligand binding domain of the glucocorticoid receptor (HEK293 cells stably expressing) (Homo sapiens, UniProt P04150).
T3 sequence (P04150 524-758 limits assumed): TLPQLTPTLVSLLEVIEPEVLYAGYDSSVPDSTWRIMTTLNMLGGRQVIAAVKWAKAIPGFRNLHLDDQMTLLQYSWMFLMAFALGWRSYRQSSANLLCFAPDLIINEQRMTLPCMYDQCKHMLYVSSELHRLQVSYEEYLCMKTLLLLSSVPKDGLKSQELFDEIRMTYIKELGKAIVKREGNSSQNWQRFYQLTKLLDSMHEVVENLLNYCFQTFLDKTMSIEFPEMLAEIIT
In words: GR antagonism assay (luciferase reporter). (Reporter assays use an easily measured gene product as a stand-in for the process of interest.)
Method: HEK293 cells stably expressing the ligand binding domain of the glucocorticoid receptor were seeded at a density of 40000 cells/well in the assay plate. The assay plate was then incubated at 37° C., 5% CO2 for 30 minutes. Dexamethasone was added to the assay plate at 1.5 nM final concentration and the assay plate incubated at 37° C., 5% CO2 for 20 h. After the incubation period, Dual-glo luciferase reagent was added to the assay plate and mixed at room temperature for 20 minutes on an orbital shaker, before reading out on the En Vision plate reader. 50 μL of Stop & Glo reagent was added to assay plate, mixed at room temperature for 20 minutes, and read on the Envision plate reader.

Consider one compound from patent publication US20260102501A1, “ANTI-CANCER NUCLEAR HORMONE RECEPTOR-TARGETING COMPOUNDS” (Nuvation Bio Inc., priority 2022, published 2026).

Numbered stars: 1 amine (or outer) side, 2 acyl side, 3 side chain; on linkers, the order of the positions; unused ones are H or OH. Square brackets hold non-standard residues; d marks the D form. Peptide text beside a SMILES is read from it. * marks the point of attachment. X1 = CC(=O)O[C@]1(C(C)=O)CC[C@H]2[C@@H]3CCC4=CC(=O)CCC4=C3[C@@H](c3ccc(*)cc3)C[C@@]21C; Exatecan = CC[C@@]1(O)C(=O)OCc2c1cc1n(c2=O)Cc2c-1nc1cc(F)c(C)c3c1c2[C@@H](N*)CC3; NHCH2OCH2CO = O=C(COCN[*:1])[*:2]; Sar = CNCC(=O)O

For orientation: IC50 means the concentration that gives 50% inhibition. Regarding `CC[C@@]1(O)C(=O)OCc2c1cc1n(c2=O)Cc2c-1nc1cc(F)c(C)c3c1c2[C@@H](NC(=O)COCNC(=O)CNC(=O)[C@H](Cc1ccccc1)NC(=O)CNC(=O)CN(C)c1ccc([C@H]2C[C@@]4(C)[C@@H](CC[C@]4(OC(C)=O)C(C)=O)[C@@H]4CCC5=CC(=O)CCC5=C42)cc1)CC3` [Compound 34, (8S,11R,13S,14S,17R)-17-Acetyl-11-(4-(((S)-10-benzyl-1-(((1S,9S)-9-ethyl-5-fluoro-9-hydroxy-4-methyl-10,13-dioxo-2,3,9,10,13,15-hexahydro-1H,12H-benzo[de]pyrano[3′,4′:6,7]indolizino[1,2-b]quinolin-1-yl)amino)-1,6,9, 12,15-pentaoxo-3-oxa-5,8,11,14-tetraazahexadecan-16-yl)(methyl)amino)phenyl)-13-methyl-3-oxo-2,3,6,7,8,11,12,13,14,15,16,17-dodecahydro-1H-cyclopenta[a]phenanthren-17-yl Acetate] (X1-[Sar]GFG[NHCH2OCH2CO]-Exatecan), the IC50 in assay [1] is 101 to 1000 nM; in assay [3] it was 101 to 1000 nM; in assay [4], 10 to 100 nM; in assay [5], 101 to 1000 nM. In addition, the PR antagonism entry in assay [2] is “a (IC50 =< 10 nM)”.
